Assay results: PubChem BioAssay AID248 (DTP/NCI, 2004)
Several values for one entry are separate records, joined by “and”; a condition that tells them apart may be missing. Identical values can stand only once. Toxic doses and inconclusive results are not listed. Rule as the data show it: active = T/C of 150% or more; inactive = T/C below 125%.

Test system: L1210 leukemia ip in BDF1 mice, survival T/C
Experiment: NCI In Vivo Anticancer Drug Screen. Data for tumor model L1210 Leukemia (intraperitoneal) in B6D2F1 (BDF1) mice
Conditions: endpoint: mean survival time, higher = longer survival
In short: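 Tumor cells were implanted, animals were treated, and survival was followed. The result divides the treated measurement by the vehicle-control measurement.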

[1] = dose: 100.0 mg/kg/injection, schedule: Q01DX009 (ip), vehicle: saline
[2] = dose: 100.0 mg/kg/injection, schedule: Q04DX002 (ip), vehicle: Klucel (hydroxypropylcellulose) (HPC)
[3] = dose: 200.0 mg/kg/injection, schedule: Q04DX002 (ip), vehicle: Klucel (hydroxypropylcellulose) (HPC)
[4] = dose: 200.0 mg/kg/injection, schedule: Q01DX009 (ip), vehicle: saline
[5] = dose: 100.0 mg/kg/injection, schedule: Q01DX001 (ip), vehicle: saline
[6] = dose: 200.0 mg/kg/injection, schedule: Q01DX001 (ip), vehicle: saline
[7] = dose: 400.0 mg/kg/injection, schedule: Q01DX001 (ip), vehicle: saline
[8] = dose: 100.0 mg/kg/injection, schedule: Q04DX003 (ip), vehicle: saline with Tween-80
[9] = dose: 200.0 mg/kg/injection, schedule: Q04DX003 (ip), vehicle: saline with Tween-80

Measured: T/C

Nc1cccs1
active: [1] 153 % of control
inactive: dose: 8.12 mg/kg/injection, schedule: Q01DX009 (ip), vehicle: saline 100 % of control | dose: 9.37 mg/kg/injection, schedule: Q01DX009 (ip), vehicle: other 94 % of control | dose: 16.25 mg/kg/injection, schedule: Q01DX009 (ip), vehicle: saline 100 % of control | dose: 18.75 mg/kg/injection, schedule: Q01DX009 (ip), vehicle: other 107 % of control | dose: 37.5 mg/kg/injection, schedule: Q01DX009 (ip), vehicle: other 107 % of control | dose: 75.0 mg/kg/injection, schedule: Q01DX009 (ip), vehicle: other 96 % of control | dose: 150.0 mg/kg/injection, schedule: Q01DX009 (ip), vehicle: other 96 % of control | dose: 300.0 mg/kg/injection, schedule: Q01DX009 (ip), vehicle: other 102 % of control

COC1OC2COc3ccccc3OC2C2C1N2C(C)=O (stereo not drawn)
inactive: [2] 113 % of control | [3] 98 % of control

COc1cc2ccc3c(c2cc1OC)CNCC3
inactive: dose: 50.0 mg/kg/injection, schedule: Q01DX009 (ip), vehicle: saline 104 % of control | [1] 104 % of control | dose: 100.0 mg/kg/injection, schedule: Q04DX003 (ip), vehicle: saline 116 % of control | [4] 88 % of control | dose: 200.0 mg/kg/injection, schedule: Q04DX003 (ip), vehicle: saline 102 % of control

CCCC(OP(=S)(OCC(Cl)CC)OCC(Cl)CC)P(=O)(OCC(Cl)CC)OCC(Cl)CC (stereo not drawn)
inactive: dose: 100.0 mg/kg/injection, schedule: Q04DX002 (ip), vehicle: saline 106 % of control | dose: 200.0 mg/kg/injection, schedule: Q04DX002 (ip), vehicle: saline 106 % of control | dose: 400.0 mg/kg/injection, schedule: Q04DX002 (ip), vehicle: saline 106 % of control

Cc1ccc(S(=O)(=O)NCCN(C2CCCCC2)S(=O)(=O)c2ccc(C)cc2)cc1
inactive: dose: 15.0 mg/kg/injection, schedule: Q01DX001 (ip), vehicle: carboxymethylcellulose (CMC) 96 % of control | dose: 30.0 mg/kg/injection, schedule: Q01DX001 (ip), vehicle: carboxymethylcellulose (CMC) 96 % of control

O=C(c1ccccc1)C1C(C(=O)c2ccccc2)C(c2ccccc2)N(c2ccccc2)C1c1ccccc1 (stereo not drawn)
inactive: dose: 50.0 mg/kg/injection, schedule: Q01DX001 (ip), vehicle: saline 94 % of control | [5] 94 % of control | [6] 97 % of control | [7] 105 % of control

O=C(O)/C=C(/Oc1ccc(Cl)cc1)C(=O)O
inactive: dose: 100.0 mg/kg/injection, schedule: Q04DX002 (ip), vehicle: other 93 % of control | dose: 200.0 mg/kg/injection, schedule: Q04DX002 (ip), vehicle: other 103 % of control | dose: 400.0 mg/kg/injection, schedule: Q04DX002 (ip), vehicle: other 100 % of control

Cn1c(=O)c2ccccc2c2cc(Cl)ccc21
inactive: dose: 100.0 mg/kg/injection, schedule: Q01DX009 (ip), vehicle: Klucel (hydroxypropylcellulose) (HPC) 94 % of control | dose: 100.0 mg/kg/injection, schedule: Q04DX003 (ip), vehicle: Klucel (hydroxypropylcellulose) (HPC) 96 % of control | dose: 200.0 mg/kg/injection, schedule: Q04DX003 (ip), vehicle: Klucel (hydroxypropylcellulose) (HPC) 96 % of control | dose: 400.0 mg/kg/injection, schedule: Q04DX003 (ip), vehicle: Klucel (hydroxypropylcellulose) (HPC) 93 % of control

NS(=O)(=O)c1ccc(NC(=S)NC(=O)c2cccc([N+](=O)[O-])c2)cc1
inactive: dose: 50.0 mg/kg/injection, schedule: Q04DX003 (ip), vehicle: saline with Tween-80 97 % of control | dose: 100.0 mg/kg/injection, schedule: Q01DX001 (ip), vehicle: saline with Tween-80 96 % of control | dose: 100.0 mg/kg/injection, schedule: Q01DX009 (ip), vehicle: saline with Tween-80 96 % of control and 101 % of control | dose: 100.0 mg/kg/injection, schedule: Q04DX002 (ip), vehicle: saline with Tween-80 90 % of control | [8] 97 % of control and 105 % of control | dose: 200.0 mg/kg/injection, schedule: Q01DX001 (ip), vehicle: saline with Tween-80 101 % of control | dose: 200.0 mg/kg/injection, schedule: Q01DX009 (ip), vehicle: saline with Tween-80 103 % of control and 89 % of control | dose: 200.0 mg/kg/injection, schedule: Q04DX002 (ip), vehicle: saline with Tween-80 104 % of control | [9] 94 % of control | dose: 400.0 mg/kg/injection, schedule: Q01DX001 (ip), vehicle: saline with Tween-80 86 % of control | dose: 400.0 mg/kg/injection, schedule: Q01DX009 (ip), vehicle: saline with Tween-80 96 % of control and 89 % of control | dose: 400.0 mg/kg/injection, schedule: Q04DX002 (ip), vehicle: saline with Tween-80 87 % of control | dose: 400.0 mg/kg/injection, schedule: Q04DX003 (ip), vehicle: saline with Tween-80 89 % of control

O=C1OC(c2ccc3c(c2)OCO3)C(C(=O)CCl)c2ccccc21 (stereo not drawn)
inactive: [8] 97 % of control | [9] 93 % of control

Cn1c(Cl)c(/C=N/NC(N)=S)c2ccccc21
inactive: dose: 50.0 mg/kg/injection, schedule: Q04DX002 (ip), vehicle: Klucel (hydroxypropylcellulose) (HPC) 91 % of control | [2] 91 % of control | [3] 87 % of control

O=C(O)c1ccc(/C=N/NC(=S)Nc2cccc3cccnc23)cc1
inactive: [6] 94 % of control | [7] 97 % of control

O=NN(CCF)C(=O)NC1CS(=O)(=O)CS(=O)(=O)C1
active: dose: 6.25 mg/kg/injection, schedule: Q01DX001 (ip), vehicle: other 164 % of control | dose: 12.5 mg/kg/injection, schedule: Q01DX001 (ip), vehicle: other 204 % of control | dose: 25.0 mg/kg/injection, schedule: Q01DX001 (ip), vehicle: other 255 % of control | dose: 50.0 mg/kg/injection, schedule: Q01DX001 (ip), vehicle: other 262 % of control | dose: 75.0 mg/kg/injection, schedule: Q01DX001 (ip), vehicle: other 296 % of control | dose: 100.0 mg/kg/injection, schedule: Q01DX001 (ip), vehicle: other 205 % of control

CC(C)c1cc(C(C)C)c(S(=O)(=O)/C=C/c2ccccc2)c(C(C)C)c1
inactive: [5] 104 % of control | [1] 91 % of control | dose: 100.0 mg/kg/injection, schedule: Q04DX003 (ip), vehicle: acetone 100 % of control | [6] 97 % of control | [4] 93 % of control | dose: 200.0 mg/kg/injection, schedule: Q04DX003 (ip), vehicle: acetone 97 % of control | [7] 92 % of control | dose: 400.0 mg/kg/injection, schedule: Q01DX009 (ip), vehicle: saline 89 % of control | dose: 400.0 mg/kg/injection, schedule: Q04DX003 (ip), vehicle: acetone 105 % of control

Cc1ccc(/C=C2/C=C(c3ccccc3)OC2=O)cc1
inactive: dose: 50.0 mg/kg/injection, schedule: Q01DX009 (ip), vehicle: alcohol 87 % of control | dose: 100.0 mg/kg/injection, schedule: Q01DX009 (ip), vehicle: alcohol 87 % of control | dose: 100.0 mg/kg/injection, schedule: Q04DX003 (ip), vehicle: alcohol 92 % of control | dose: 200.0 mg/kg/injection, schedule: Q01DX009 (ip), vehicle: alcohol 88 % of control | dose: 200.0 mg/kg/injection, schedule: Q04DX003 (ip), vehicle: alcohol 95 % of control

c1ccc(C2(NC3=NCCO3)CCCCC2)cc1
inactive: dose: 10.0 mg/kg/injection, schedule: Q01DX009 (ip), vehicle: Klucel (hydroxypropylcellulose) (HPC) 101 % of control | dose: 20.0 mg/kg/injection, schedule: Q01DX009 (ip), vehicle: Klucel (hydroxypropylcellulose) (HPC) 97 % of control | dose: 40.0 mg/kg/injection, schedule: Q01DX009 (ip), vehicle: Klucel (hydroxypropylcellulose) (HPC) 101 % of control | dose: 75.0 mg/kg/injection, schedule: Q01DX009 (ip), vehicle: Klucel (hydroxypropylcellulose) (HPC) 107 % of control

CCCCC(=O)N(C(C)C)C(C)C
inactive: dose: 50.0 mg/kg/injection, schedule: Q01DX009 (ip), vehicle: carboxymethylcellulose (CMC) 94 % of control and 103 % of control | dose: 100.0 mg/kg/injection, schedule: Q01DX009 (ip), vehicle: carboxymethylcellulose (CMC) 97 % of control and 102 % of control | dose: 100.0 mg/kg/injection, schedule: Q04DX002 (ip), vehicle: carboxymethylcellulose (CMC) 95 % of control and 98 % of control | dose: 200.0 mg/kg/injection, schedule: Q04DX002 (ip), vehicle: carboxymethylcellulose (CMC) 95 % of control

COC1=NS(=O)(=O)CC(c2ccccc2)O1 (stereo not drawn)
inactive: dose: 75.0 mg/kg/injection, schedule: Q04DX003 (ip), vehicle: other 102 % of control | dose: 150.0 mg/kg/injection, schedule: Q04DX003 (ip), vehicle: other 86 % of control | dose: 300.0 mg/kg/injection, schedule: Q04DX003 (ip), vehicle: other 94 % of control
